In patent publication US4000261A, “5-Epi-4,6-di-O-(aminoglycosyl)-2-deoxystreptamines, methods for their manufacture and intermediates useful therein, methods for their use as antibacterial agents and compositions useful therefor” (priority 1975, dated 1976):
Values after ≈ are worked out from the molar mass of the structure shown. Like-named read-outs stand apart in the source and are kept apart here.

Columns and labels:
Assay type in all cases: cell-based
[1] = test system: gram-positive and gram-negative bacteria; test: antibacterial spectrum and relative activity in vitro; conditions: for antibacterial spectrum in vitro: compared with gentamicin C1, C1a and C2
[2] = test system: gram positive bacteria (e.g. Staphylococcus aureus) and gram negative bacteria (e.g. Escherichia coli and Pseudomonas aeruginosa); test: antibacterial activity determined by standard dilution tests; conditions: including bacteria resistant to the parent compounds
Bacillus subtilis 663 = test: in vitro minimal inhibitory concentration (MIC), standard tube dilution method; conditions: strain 663, Mueller-Hinton broth
From the text: (§1) In Table 1, set forth below is shown the in vitro minimal inhibitory concentration (MIC) of gentamicin C2a against representative gram-positive and gram-negative bacteria. The results are derived using the standard tube dilution method in Mueller-Hinton broth.
(§2) In Table 2, set forth below is shown the in vitro minimal inhibitory concentration (MIC) of gentamicin C2b against representative gram-positive and gram-negative bacteria. The results are derived using the standard tube dilution method in Mueller-Hinton broth.

Escherichia coli = test: as above
From the text: as §1, §2

Klebsiella pneumoniae = test: as above
From the text: as §1, §2

Pseudomonas aeruginosa = test: as above
From the text: as §1, §2

Salmonella typhi. B. = test: as above; conditions: Salmonella enterica
From the text: as §1, §2

Staphylococcus aureus = test: as above; conditions: Mueller-Hinton broth
From the text: as §1, §2

[3] = ATCC10536, strain ATCC 10536, Mueller-Hinton broth
[4] = strain JR66, gentamicin resistant, Mueller-Hinton broth
[5] = strain LA 290/R55, gentamicin resistant, Mueller-Hinton broth
[6] = strain 17, Mueller-Hinton broth, read-out: MIC
[7] = strain 20, Mueller-Hinton broth
[8] = strain 762, Mueller-Hinton broth
[9] = strain 3223, Mueller-Hinton broth
[10] = strain St 138, gentamicin resistant, Mueller-Hinton broth
[11] = strain Travers, gentamicin resistant, Mueller-Hinton broth

Compound	MIC (Bacillus subtilis 663) [µg/mL]	MIC (Escherichia coli; [3]) [µg/mL]	MIC (Escherichia coli; [4]) [µg/mL]	MIC (Escherichia coli; [5]) [µg/mL]	MIC (Klebsiella pneumoniae; [6]) [µg/mL]	MIC (Pseudomonas aeruginosa; [7]) [µg/mL]	MIC (Pseudomonas aeruginosa; [8]) [µg/mL]	MIC (Pseudomonas aeruginosa; [9]) [µg/mL]	MIC (Pseudomonas aeruginosa; [10]) [µg/mL]	MIC (Pseudomonas aeruginosa; [11]) [µg/mL]	MIC (Salmonella typhi. B.) [µg/mL]	MIC (Staphylococcus aureus; strain 59N) [µg/mL]	MIC (Staphylococcus aureus; strain Ziegler) [µg/mL]	antibacterial spectrum in vitro [1]	other results
CCN[C@@H]1C[C@H](N)[C@@H](O[C@H]2OC(CN)=CC[C@H]2N)[C@@H](O)[C@H]1O[C@H]1OC[C@](C)(O)[C@H](NC)[C@H]1O [1-N-ethyl-5-episisomicin]	–	–	–	–	–	–	–	–	–	–	–	–	–	–	antibacterial activity / spectrum ([1]; general statement, some compared with parent antibiotics): enhanced antibacterial activity
CN[C@@H]1[C@@H](O)[C@@H](O[C@@H]2[C@H](O)[C@H](O[C@H]3OC(CN)=CC[C@H]3N)[C@@H](N)C[C@H]2N)OC[C@@H]1O [5-epi-Antibiotic 66-40D]	–	–	–	–	–	–	–	–	–	–	–	–	–	–	antibacterial activity in standard dilution tests [2]: active against gram positive bacteria (e.g. Staphylococcus aureus) and gram negative bacteria (e.g. Escherichia coli and Pseudomonas aeruginosa)
CN[C@@H]1[C@@H](O)[C@@H](O[C@@H]2[C@@H](O)[C@H](O[C@H]3O[C@H]([C@H](C)N)CC[C@H]3N)[C@@H](N)C[C@H]2N)OC[C@]1(C)O [gentamicin C2a]	0.1 (≈ 0.216 µM)	0.3 (≈ 0.647 µM)	7.5 (≈ 16.2 µM)	17.5 (≈ 37.8 µM)	0.8 (≈ 1.73 µM)	3 (≈ 6.47 µM)	0.8 (≈ 1.73 µM)	0.3 (≈ 0.647 µM)	> 25	> 25	0.3 (≈ 0.647 µM)	0.3 (≈ 0.647 µM)	0.3 (≈ 0.647 µM)	substantially the same antibacterial spectrum in vitro as do gentamicin C1, C1a and C2	MIC (Klebsiella pneumoniae): 17.5 µg/mL (≈ 37.8 µM); MIC (Staphylococcus aureus; Staphylococcus aureus, strain 6538P, read-out: MIC): 0.3 µg/mL (≈ 0.647 µM); activity relative to the gentamicin C complex ([1]; as the free base, % of the activity of the gentamicin C complex): about 74%
CNC[C@@H]1CC[C@@H](N)[C@@H](O[C@H]2[C@H](O)[C@@H](O[C@H]3OC[C@](C)(O)[C@H](NC)[C@H]3O)[C@H](N)C[C@@H]2N)O1 [gentamicin C2b]	< 0.05	0.075 (≈ 0.162 µM)	7.5 (≈ 16.2 µM)	> 25	0.075 (≈ 0.162 µM)	0.3 (≈ 0.647 µM)	0.3 (≈ 0.647 µM)	0.075 (≈ 0.162 µM)	17.5 (≈ 37.8 µM)	> 25	0.3 (≈ 0.647 µM)	0.075 (≈ 0.162 µM)	0.075 (≈ 0.162 µM)	substantially the same antibacterial spectrum in vitro as do gentamicin C1, C1a and C2	MIC (Klebsiella pneumoniae; strain 3694, gentamicin resistant, Mueller-Hinton broth, read-out: MIC): 17.5 µg/mL (≈ 37.8 µM); MIC (Staphylococcus aureus; Staphylococcus aureus, strain wood, read-out: MIC): 0.075 µg/mL (≈ 0.162 µM)
